Data on four compounds can be found in US20190226949A1, “IRIDIUM COMPLEXES FOR CELLULAR IMAGING” (UNIVERSITY OF SOUTH AUSTRALIA, priority 2016, published 2019).

Data set [1] has as its system non-malignant control PNT1a cells. Put plainly: Staining of prostate cells with lipid dyes, PNT1a. The format is cell-based, Human. The conditions noted are these: PNT1a fixed in 4% paraformaldehyde, 30 minutes. As for the experimental part:
(§1) The fluorescent dyes, Filipin and BODIPY® 493/503, were incubated for 30 minutes with each of the four prostate cell lines (i.e. PNT1a, DU145, 22RV1 and LNCaP), fixed in 4% paraformaldehyde and imaged under confocal microscopy, which was supplemented with two-photon Mai-Tai® and Argon lasers. Prostate cell lines grown on coverslips were stained with ReZolve-L1™ and IraZolve [Ir(ppy)2(TzPyCN)] in serum-free media for 30 minutes at 37° C. and 5% CO2 and imaged in live mode, avoiding the process of fixation. From this experiment, different staining patterns between prostate cell lines and the fluorescent dyes were clearly seen (FIG. 12). For example, the level of diffuse cytosolic staining vs membrane staining with Filipin varied between cell lines (FIG. 12 a-d). […] Differences in the 22RV1 and LNCaP staining pattern in comparison to PNT1a and DU145 were apparent with BODIPY® 493/503 fluorescent dye. […] The fluorescence of ReZolve-L1™ was low in non-malignant control PNT1a cells, when compared to prostate cancer cells (FIG. 12i-l). […] These positive results prompted us to analyse staining of the prostate cells with the fluorescent dye IraZolve (FIG. 12m-p). […] In contrast, the intensity of staining in the malignant cell lines DU145, 22RV1 and LNCaP with ReZolve-L1™ was significant. […]

The subject of data set [2] is prostate cancer DU145 cells. The data set is described as follows: Staining of prostate cells with lipid dyes, DU145. The format is cell-based, Human. The conditions noted are these: DU145 fixed in 4% paraformaldehyde, 30 minutes. As for the experimental part: as §1
The test system of data set [3] is prostate cancer 22RV1 cells. Put plainly: Staining of prostate cells with lipid dyes, 22RV1. Format: cell-based, Human. The conditions noted are these: 22RV1 fixed in 4% paraformaldehyde, 30 minutes. As for the experimental part: as §1
Data set [4] has as its system prostate cancer LNCaP cells. Put plainly: Staining of prostate cells with lipid dyes, LNCaP. The format is cell-based, Human. The conditions noted are these: 30 minutes. As for the experimental part:
as §1

Data set [5] can be described thus: Photophysical measurements (absorption, emission, lifetime, quantum yield) in diluted solutions. The format is physicochemical.
The nature of data set [6]: Lipophilicity by shake-flask method (7.4-buffered PBS / n-octanol). Format: physicochemical. The conditions noted are these: 7.4-buffered PBS solution and n-octanol.
For data set [7] the following is noted: previously published complex; cited from earlier work.

SMILES strings stand for the structures. Values joined by “and” are separate entries in the source; they are usually repeats but may differ in a detail not shown here. Equal entries are not always repeated. “Also recorded” adds a separate entry of the source.

In the case of `CCCCC[C@@H](O)[C@H]1C(=O)O[C@H](C)[C@@H](O)/C=C/C=C/C=C/C=C/C=C(\C)[C@@H](O)C[C@H](O)C[C@H](O)C[C@H](O)C[C@H](O)C[C@H](O)C[C@@H]1O` [Filipin, reference compound], the staining pattern result is “a number of small vesicles were brightly stained” in data set [1]; “relatively low level” in data set [2]; “quite bright vesicular and plasma membrane staining” in data set [3]; “a number of small vesicles were brightly stained” in data set [4] (LNCaP fixed in 4% paraformaldehyde).

For `N#Cc1ccc2[n+](c1)[Ir]13([c]4ccccc4-c4cccc[n+]41)([c]1ccccc1-c1cccc[n+]13)[n]1nnnc1-2` [[Ir(ppy)2(TzPyCN)]], the “Absorption λabs [nm] (10^4ε [M^−1cm^−1])” value in data set [5] (DCM, 10^−5 M) was 263 (6.57) nm (10^4ε [M^−1cm^−1]) and 339 (1.59) nm (10^4ε [M^−1cm^−1]) and 382 (1.09) nm (10^4ε [M^−1cm^−1]) and 420 (0.58) nm (10^4ε [M^−1cm^−1]). The “Emission λem” value is on record as 618 nm in data set [5] (DCM, 298K, 10^−5 M) and 618 nm in data set [5] (H2O with 0.1% DMSO, 298K, aerated). For the same compound, the “τaer, excited state lifetime (relative weight in parentheses)” value in data set [5] (DCM, aerated, 298K) turned out to be 131 ns. In data set [5] (DCM, aerated, versus Ru(bpy)3^2+ in water (φr = 0.028)), the “Φaer, quantum yield” value came to 0.055. Besides, the “τdeaer, excited state lifetime (relative weight in parentheses)” value in data set [5] (DCM, deaerated, 298K) was 529 ns. Besides, the “Φdeaer, quantum yield” value in data set [5] (DCM, deaerated, versus Ru(bpy)3^2+ in water (φr = 0.028)) amounted to 0.397. Besides, the knr in data set [5] (DCM, calculated as [(1 − φ)/τ] from deaerated solutions) is reported as 1.140 10^6s^−1. The kr in data set [5] (DCM, calculated as [φ/τ] from deaerated solutions) is recorded as 7.505 10^5s^−1. Moreover, the “Φ, quantum yield” value in data set [5] (H2O with 0.1% DMSO, aerated, versus Ru(bpy)3^2+ in water) was 0.047. For the same compound, the “logD7.4, distribution coefficient” value in data set [6] was determined as 2.09 ± 0.06. The “staining pattern / intensity” value in data set [4] (live LNCaP, 20 μM, serum-free media, listed as IraZolve) is “stains the endoplasmic reticulum, where both phospholipids and triacylglycerides are synthesised, and it also co-localises with fatty acids in lipid droplets; also recorded: almost identical to that observed for ReZolve-L1™; also recorded: significantly greater”.

Regarding `CC1=CC(C)=[N+]2C1=C(C)c1c(C)cc(C)n1[B-]2(F)F` [BODIPY® 493/503, reference compound], the staining pattern result in data set [1] was “localised staining to lipid droplets”; in data set [2], “localised staining to lipid droplets”; in data set [3], “diffused cytosolic staining and localised staining to lipid droplets”.

Turning to `c1cc[c]2c(c1)-c1cccc[n+]1[Ir]213([c]2ccccc2-c2cccc[n+]21)[n]1nnnc1-c1cccc[n+]13` [[Ir(ppy)2(TzPy)]], the “λem, structured emission” value in data set [7] was 481 nm and 510 nm.
